Patent US12383653B2, “Neutral multidomain peptide hydrogels and uses thereof” (William Marsh Rice University, priority 2018, dated 2025)
“Also recorded” adds a separate entry of the source.

Assays:
NIH-3T3 fibroblasts = test: 3D culture cytocompatibility, Calcein AM / Ethidium homodimer-1 viability and cell morphology; assay type: cell-based
Method: (§1) Cytocompatibility and cell viability studies. All cell culture materials, not otherwise specified, were purchased from Gibco, Life Technologies. NIH-3T3 fibroblast cells were cultured in Dulbecco's Modified Eagle Medium (DMEM) supplemented with 10% Fetal Bovine Serum (FBS), 2% L-glutamine (200 mM), 1% sodium pyruvate (100 mM), and 1% pen-strep solution (5000 units/mL of penicillin and 5 mg/mL of streptomycin, Sigma-Aldrich, St. Louis, MO). Cells were maintained at 37° C. and 5% CO2 with humidity and split when reaching 80%-90% confluency by treatment with 0.25% trypsin-EDTA and neutralization with complete media. Cells were centrifuged for 6 min at 1600 rpm, then the cell pellet was dispersed in HBSS, counted and adjusted to the required concentration. 3D cell culture in K2 hydrogel was achieved by mixing a 2% by weight peptide stock solution in 298 mM sucrose with a cell suspension of 2×10^6 cells/mL in HBSS. The final concentration was 1% by weight K2 hydrogel in 149 mM sucrose and 0.5×HBSS with 1×10^6 cells/mL. For O5 peptide, hydrogel was prepared by sonication using only 90% of the required 149 mM sucrose-0.5×HBSS to obtain a 1% by weight concentration, the remaining 10% was added as a cell suspension, and mixed by pipetting into the gel to obtain a final concentration of 1×10^6 cells/mL evenly distributed though the volume of the hydrogel. 70 μL of seeded hydrogels were cultured in a Lab-Tek 16-well glass chamber ([…], Thermo Fisher, Rochester, NY) with 200 μL of medium and fed every 2 days by replacing 100 μL with fresh media. Cell viability was analyzed using a live/dead viability kit (Invitrogen, Thermo Fisher, Carlsbad, CA). At specific time points, the medium was removed, and gels were rinsed with 1×PBS, then 100 μL of staining solution containing 2 μM Calcein AM and 4 μM Ethidium homodimer-1 in DPBS were added. Cells were incubated from 15 to 30 min and imaged using a Nikon A1 Rsi fluorescent confocal microscope (Nikon Instruments, Tokyo, Japan). Three z-stack images of 100 μm deep per sample were taken at 20× using a 488 nm green channel and 561 nm red channel lasers. Images were processed with NIS Element and live/dead cell counting was performed on Imaris 3D/4D Image Processing software (Bitplane, Concord, MA).
(§2) To evaluate the cell morphology, hydrogels were rinsed with PBS and fixed with 10% buffered formalin for 30 min Cells were treated with 0.5% Triton X for 10 min and 100 mM glycine for 10 min, followed by 10% Bovine Serum Albumin (BSA) in HBSS block solution. Then cells were stained for filamentous actin with Alexa Fluor® 488-Phalloidin and for the nuclei with ProLong® Gold Antifade DAPI mounting media. Cell in the hydrogels were analyzed by confocal microscopy using a 40× water objective and processed as described.

[1] = as above; assay type: cell-based; details: mouse; day 1 after encapsulation, 1 wt.% hydrogel; read-out: percentage of viable cells
Method: as §1, §2

[2] = Hydrogel formation (inverted-vial test, pH, ionic strength, buffers); assay type: physicochemical; details: 1% by weight, pH adjusted with HCl or NaOH, inverted-vial test / CD
Method: Hydrogel Formation. Peptide solutions of O5 were prepared at 1% by weight (4.2 mM) in 149 mM sucrose and 0.5×HBSS. This buffer system was chosen to be consistent with prior MDP experiments and find optimum gelling conditions for future in vivo and in vitro work. Peptide solutions were sonicated using a Microson Ultrasonic Cell Disruptor with a 2 mm microprobe. The instrument frequency was 22.5 kHz and a power output up to 10 watts (RMS) was used. Solutions were sonicated at room temperature for 1 or 10 cycles, where each cycle consisted of 10 pulses and 1 min relaxation time between cycles. For the study of hydrogelation of O5, K2 and E2 at different pH values and ionic strength, 1% by weight peptide solutions were prepared in deionized water, PBS, or HBSS. pH was adjusted using HCl or NaOH 0.1 M solutions.

CC(=O)N[C@@H](CCCCN)C(=O)N[C@@H](CCCCN)C(=O)N[C@@H](CO)C(=O)N[C@@H](CC(C)C)C(=O)N[C@@H](CO)C(=O)N[C@@H](CC(C)C)C(=O)N[C@@H](CO)C(=O)N[C@@H](CC(C)C)C(=O)N[C@@H](CO)C(=O)N[C@@H](CC(C)C)C(=O)N[C@@H](CO)C(=O)N[C@@H](CC(C)C)C(=O)N[C@@H](CO)C(=O)N[C@@H](CC(C)C)C(=O)N[C@@H](CCCCN)C(=O)N[C@@H](CCCCN)C(N)=O [Peptide K2, Ac-KKSLSLSLSLSLSLKK-CONH2, reference compound]
percentage of viable cells (NIH-3T3 fibroblasts; day 3 compared with day 1): relatively unchanged | cytotoxicity / viability over the culture (NIH-3T3 fibroblasts; days 1 to 5, 1 wt.% hydrogel): somewhat cytotoxic during the first days of cell culture | cell proliferation / viable cell density in the gel (NIH-3T3 fibroblasts; up to day 5): by day 5 cell density is significantly higher than days 1 and 3 | viability at 24 h, 1 % by weight [1]: ~20% | hydrogel formation at acidic, neutral and basic pH [2]: dependent on pH; also recorded: forms a gel at pH 11 | hydrogel formation at acidic, neutral and basic pH ([2]; listed as K2(SL)6K2): gels only forming at neutral pH or at elevated ionic strength
